What was measured:
Assay in all cases: relative viability (nuclei count vs DMSO), 5 days (fraction); higher = more cells survive
Bexarotene + Lapatinib = compound: C=C(c1ccc(C(=O)O)cc1)c1cc2c(cc1C)C(C)(C)CCC2(C)C [Bexarotene] + CS(=O)(=O)CCNCc1ccc(-c2ccc3ncnc(Nc4ccc(OCc5cccc(F)c5)c(Cl)c4)c3c2)o1 [Lapatinib] (partner 2 µM)
Summary of the method: (§1)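 A single step with final 0.05% Triton X-100, 1% formaldehyde and 1 ug/ml Hoechst fixed the cells and stained nuclei 5 days after treatment. Lung cancer cell lines in 1536-well plates had been treated by pin tool the day after seeding with one drug alone or a fixed anchor-drug dose plus five library-drug doses (not always all listed) in √10 steps, and nuclei were counted on 4× images. Relative viability is the ratio of nuclei in treated wells to nuclei in vehicle wells, taken as the median of duplicate plates.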

Bexarotene + Crizotinib = compound: C=C(c1ccc(C(=O)O)cc1)c1cc2c(cc1C)C(C)(C)CCC2(C)C [Bexarotene] + C[C@@H](Oc1cc(-c2cnn(C3CCNCC3)c2)cnc1N)c1c(Cl)ccc(F)c1Cl [Crizotinib] (partner 1 µM)
Summary of the method: as §1

Bexarotene + Tozasertib = compound: C=C(c1ccc(C(=O)O)cc1)c1cc2c(cc1C)C(C)(C)CCC2(C)C [Bexarotene] + Cc1cc(Nc2cc(N3CCN(C)CC3)nc(Sc3ccc(NC(=O)C4CC4)cc3)n2)n[nH]1 [Tozasertib] (partner 0.1 µM)
Summary of the method: as §1

Bexarotene + Decitabine = compound: C=C(c1ccc(C(=O)O)cc1)c1cc2c(cc1C)C(C)(C)CCC2(C)C [Bexarotene] + Nc1ncn([C@H]2C[C@H](O)[C@@H](CO)O2)c(=O)n1 [Decitabine] (partner 2 µM)
Summary of the method: as §1

Row | Cell Line | relative viability (Bexarotene + Lapatinib; first compound 0.08 µM) | relative viability (Bexarotene + Lapatinib; first compound 0.253 µM) | relative viability (Bexarotene + Lapatinib; first compound 0.8 µM) | relative viability (Bexarotene + Lapatinib; first compound 2.53 µM) | relative viability (Bexarotene + Lapatinib; first compound 8 µM) | relative viability (Bexarotene + Crizotinib; first compound 0.08 µM) | relative viability (Bexarotene + Crizotinib; first compound 0.253 µM) | relative viability (Bexarotene + Crizotinib; first compound 0.8 µM) | relative viability (Bexarotene + Crizotinib; first compound 2.53 µM) | relative viability (Bexarotene + Crizotinib; first compound 8 µM) | relative viability (Bexarotene + Tozasertib; first compound 0.08 µM) | relative viability (Bexarotene + Tozasertib; first compound 0.253 µM) | relative viability (Bexarotene + Tozasertib; first compound 0.8 µM) | relative viability (Bexarotene + Tozasertib; first compound 2.53 µM) | relative viability (Bexarotene + Tozasertib; first compound 8 µM) | relative viability (Bexarotene + Decitabine; first compound 0.08 µM) | relative viability (Bexarotene + Decitabine; first compound 0.253 µM) | relative viability (Bexarotene + Decitabine; first compound 0.8 µM) | relative viability (Bexarotene + Decitabine; first compound 2.53 µM) | relative viability (Bexarotene + Decitabine; first compound 8 µM)
1 | 201T | 1.01 | 0.945 | 1.03 | 1.02 | 0.997 | 0.994 | 0.882 | 0.974 | 0.958 | 0.982 | 0.926 | 0.86 | 0.891 | 0.92 | 0.808 | 0.828 | 0.858 | 0.746 | 0.781 | 0.692
2 | A-427 | 1.03 | 0.997 | 0.929 | 0.997 | 1.04 | 0.855 | 0.86 | 0.761 | 0.798 | 0.848 | 0.203 | 0.202 | 0.193 | 0.202 | 0.183 | 0.57 | 0.461 | 0.435 | 0.477 | 0.533
3 | ABC-1 | 0.914 | 1.38 | 1.14 | 1.16 | 1.09 | 1.02 | 0.893 | 0.853 | 1.3 | 0.829 | 0.19 | 0.175 | 0.21 | 0.197 | 0.196 | 1.21 | 0.927 | 1.12 |  | 1.09
4 | BEN | 0.869 | 0.51 | 0.623 | 0.513 | 0.66 | 0.786 | 0.737 | 0.768 | 0.708 | 0.662 | 0.462 | 0.475 | 0.499 | 0.444 | 0.493 | 0.706 | 0.666 | 0.723 | 0.647 | 0.692
5 | CAL-12T | 0.632 |  | 0.638 |  | 0.543 | 0.73 | 0.608 | 0.466 | 0.564 | 0.489 | 0.264 | 0.309 | 0.227 | 0.276 | 0.244 |  |  |  |  | 
6 | COR-L23 | 1.24 | 0.921 | 0.976 | 0.976 | 0.879 | 0.747 | 0.633 | 0.605 | 0.498 | 0.558 | 0.242 | 0.238 | 0.238 | 0.204 | 0.219 | 0.47 | 0.455 | 0.438 | 0.452 | 0.416
7 | COR-L 105 | 0.404 | 0.33 | 0.322 | 0.378 | 0.345 | 0.863 | 0.951 | 0.88 | 0.857 | 0.699 | 0.395 | 0.328 | 0.324 | 0.442 | 0.388 | 0.731 | 0.704 | 0.664 | 0.616 | 0.578
8 | Calu-6 | 0.929 | 1.03 | 0.987 | 0.963 | 1.14 | 0.786 | 0.753 | 0.72 | 0.823 | 0.94 |  |  |  |  |  |  |  |  |  | 
9 | ChaGo-K-1 |  |  |  |  |  | 1.19 | 1.23 | 1.15 |  | 1.15 | 0.259 | 0.234 | 0.264 | 0.223 | 0.223 | 0.57 | 0.512 | 0.509 | 0.489 | 0.497
10 | EBC-1 | 0.231 | 0.232 | 0.22 | 0.192 | 0.209 | 0.196 | 0.212 | 0.237 | 0.217 | 0.192 |  |  |  |  |  |  |  |  |  | 
11 | EKVX | 0.202 | 0.186 | 0.227 | 0.204 | 0.19 | 0.83 | 1.06 | 0.819 | 1.12 | 0.701 | 0.361 | 0.42 | 0.389 | 0.46 | 0.325 | 0.299 | 0.338 | 0.309 | 0.172 | 0.332
12 | EMC-BAC-2 | 0.923 | 0.884 | 0.812 | 0.841 | 0.887 | 0.742 | 0.806 | 0.633 | 0.706 | 0.667 | 0.311 | 0.315 | 0.274 | 0.277 | 0.283 | 1.1 | 0.948 | 0.924 |  | 0.943
13 | EPLC-272H | 0.982 | 0.825 | 0.898 | 0.746 | 0.865 | 0.877 | 0.971 | 0.854 | 0.853 | 0.772 | 0.278 | 0.262 | 0.307 | 0.286 | 0.341 | 0.414 | 0.36 | 0.353 | 0.368 | 0.414
14 | H3255 | 0.257 | 0.256 | 0.228 | 0.245 | 0.219 | 0.882 | 0.92 | 0.958 | 0.989 | 0.959 | 0.696 | 0.612 | 0.578 | 0.731 | 0.618 | 0.923 | 0.695 | 0.587 | 0.507 | 0.562
15 | HARA | 0.747 | 0.839 | 0.684 | 0.77 | 0.706 | 1.15 | 0.993 | 0.885 | 0.948 | 0.798 | 0.0906 | 0.0857 | 0.156 | 0.0749 | 0.0939 | 0.618 | 0.637 | 0.535 | 0.633 | 0.514
16 | HCC-15 | 0.93 | 0.984 | 0.944 | 0.833 | 0.846 | 0.842 | 0.924 | 0.789 | 0.837 | 0.783 | 0.357 | 0.531 | 0.415 | 0.44 | 0.34 | 0.762 | 0.72 | 0.611 | 0.588 | 0.568
17 | HCC-44 | 1.06 | 1.06 | 0.919 | 0.924 | 0.879 | 0.766 | 0.82 | 0.824 | 0.782 | 0.776 | 1.34 | 1.07 | 0.925 | 0.842 | 0.82 | 1.07 | 0.96 | 0.907 | 1.01 | 0.897
18 | HCC-78 | 0.724 | 0.7 | 0.591 | 0.637 | 0.668 | 0.317 | 0.308 | 0.375 | 0.305 | 0.33 | 0.401 | 0.483 | 0.414 | 0.435 | 0.413 | 0.735 | 0.705 | 0.673 | 0.528 | 0.749

Reference: the supplement of paper PMC10307832
